Reference: ChEMBL document CHEMBL5725825, “Inhibitors of IRAK4 activity” (2017)

Molecular target: T1, Interleukin-1 receptor-associated kinase 4 (Homo sapiens, UniProt Q9NWZ3)
T1 sequence (Q9NWZ3 whole entry): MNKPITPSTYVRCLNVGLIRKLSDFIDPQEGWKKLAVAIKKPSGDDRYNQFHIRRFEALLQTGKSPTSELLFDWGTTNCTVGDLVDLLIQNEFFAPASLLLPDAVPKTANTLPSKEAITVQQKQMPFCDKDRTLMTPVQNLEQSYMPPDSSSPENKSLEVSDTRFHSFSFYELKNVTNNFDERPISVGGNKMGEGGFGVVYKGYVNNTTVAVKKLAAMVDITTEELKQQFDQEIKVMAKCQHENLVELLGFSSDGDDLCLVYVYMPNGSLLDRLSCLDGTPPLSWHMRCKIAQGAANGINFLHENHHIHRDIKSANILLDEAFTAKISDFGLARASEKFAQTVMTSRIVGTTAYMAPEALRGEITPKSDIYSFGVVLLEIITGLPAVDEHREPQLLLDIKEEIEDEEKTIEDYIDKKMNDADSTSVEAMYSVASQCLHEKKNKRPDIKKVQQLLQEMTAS
Test: IMAP Technology: The kinase activity of IRAK4 is determined by its ability to catalyze the phosphorylation of a fluorescent polypeptide substrate. […] The reaction is initiated by the addition of ATP. After incubation for 30 minutes at 25° C., 60 μl of Progressive IMAP Reagent (Molecular Devices) is added to stop the reaction. Change in RP7030's FP is determined by a FP reader (Analyst HT, LJL BioSystems).

IC50 [µM] | Structure (SMILES)
0.184 | Cn1cc(NC(=O)c2cccc(-c3ccnc(NCC4CC4)c3)c2)c(C(N)=O)n1
1.83 | Cn1cc(NC(=O)c2cccc(-c3ccnc(NCC4CC4)c3)n2)c(C(=O)N2CCOCC2)n1
